Laboratory results reported in patent publication US20220281848A1, “PYRAZOLE-SUBSTITUTED PYRROLIDINONES AS HERBICIDES” (FMC Corporation, priority 2019, published 2022).

Tested on: plants
Experiment: Test D post-emergence, other plants of Tables D2 and D4
Type: in vivo
Settings: for STEME damage rating (100=total damage to plant; 0=no damage to plant) / VERPE damage rating (100=total damage to plant; 0=no damage to plant): "Cereals" Postemergent, evaluated after 15 d; for damage to plant (100=total damage to plant; 0=no damage to plant), ABUTH / damage to plant (100=total damage to plant; 0=no damage to plant), AMARE / damage to plant (100=total damage to plant; 0=no damage to plant), BIDPI / damage to plant (100=total damage to plant; 0=no damage to plant), BRAPL / damage to plant (100=total damage to plant; 0=no damage to plant), CYPES / damage to plant (100=total damage to plant; 0=no damage to plant), DIGSA / damage to plant (100=total damage to plant; 0=no damage to plant), ECHCG / damage to plant (100=total damage to plant; 0=no damage to plant), ELEIN / damage to plant (100=total damage to plant; 0=no damage to plant), EPHHL / damage to plant (100=total damage to plant; 0=no damage to plant), GLXMA / damage to plant (100=total damage to plant; 0=no damage to plant), IPOHE / damage to plant (100=total damage to plant; 0=no damage to plant), ORYSA / damage to plant (100=total damage to plant; 0=no damage to plant), PANMI / damage to plant (100=total damage to plant; 0=no damage to plant), SETFA / damage to plant (100=total damage to plant; 0=no damage to plant), SIDSP / damage to plant (100=total damage to plant; 0=no damage to plant), SORVU: post-emergence
Protocol: A formulation containing 50 g/L of the test chemical was prepared by dissolving the active ingredient in a mixture of organic solvents and emulsifier, details of which are provided in the table. This formulation was then mixed with a small, variable amount of acetone to aid dissolution, before addition of a 0.2% v/v aqueous solution of an adjuvant, as the aqueous diluent, to form an aqueous spray solution which contains a predetermined concentration of the active ingredient.
This aqueous spray solution was then sprayed onto plants including maize and wheat that had been seed treated with a herbicide safener, after one day's cultivation (for pre-emergence) or after about 12 days' cultivation (for post-emergence). The plants were grown from seeds sown in standard soil, placed in a glasshouse under controlled conditions (at 24/18° C. or 20/16° C., day/night; 16 h light; 65% humidity). After spray application the plants were then grown in a glasshouse under the same conditions and watered twice daily. After 15 d for post-emergence and 20 DAA for pre-emergence the test was evaluated (100=total damage to plant; 0=no damage to plant).

`CN1CC(c2cc(C(F)(F)F)n(C)n2)C(C(=O)Nc2cccc(F)c2F)C1=O` (racemic) [Compound 3] was tested, and the “STEME damage rating (100=total damage to plant; 0=no damage to plant)” value (Rates 250) was 0, the “STEME damage rating (100=total damage to plant; 0=no damage to plant)” value (Rates 500) was 10 and the “VERPE damage rating (100=total damage to plant; 0=no damage to plant)” value (Rates 130) was 0. For the same compound, the “VERPE damage rating (100=total damage to plant; 0=no damage to plant)” value (Rates 250) was 0, the “VERPE damage rating (100=total damage to plant; 0=no damage to plant)” value (Rates 500) was 60 and the “damage to plant (100=total damage to plant; 0=no damage to plant), ABUTH” value (rate 130, evaluated after 15 d) was 0. For the same compound, the “damage to plant (100=total damage to plant; 0=no damage to plant), ABUTH” value (rate 250, evaluated after 15 d) was 0, the “damage to plant (100=total damage to plant; 0=no damage to plant), ABUTH” value (rate 500, evaluated after 15 d) was 0 and the “damage to plant (100=total damage to plant; 0=no damage to plant), AMARE” value (rate 130, evaluated after 15 d) was 0. The “damage to plant (100=total damage to plant; 0=no damage to plant), AMARE” value (rate 250, evaluated after 15 d) was 0, the “damage to plant (100=total damage to plant; 0=no damage to plant), AMARE” value (rate 500, evaluated after 15 d) was 10 and the “damage to plant (100=total damage to plant; 0=no damage to plant), BIDPI” value (rate 130, evaluated after 15 d) was 0. For the same compound, the “damage to plant (100=total damage to plant; 0=no damage to plant), BIDPI” value (rate 250, evaluated after 15 d) was 0, the “damage to plant (100=total damage to plant; 0=no damage to plant), BIDPI” value (rate 500, evaluated after 15 d) was 0 and the “damage to plant (100=total damage to plant; 0=no damage to plant), BRAPL” value (rate 130, evaluated after 15 d) was 40. The “damage to plant (100=total damage to plant; 0=no damage to plant), BRAPL” value (rate 250, evaluated after 15 d) was 60, the “damage to plant (100=total damage to plant; 0=no damage to plant), BRAPL” value (rate 500, evaluated after 15 d) was 70 and the “damage to plant (100=total damage to plant; 0=no damage to plant), CYPES” value (rate 130, evaluated after 15 d) was 0. For the same compound, the “damage to plant (100=total damage to plant; 0=no damage to plant), CYPES” value (rate 250, evaluated after 15 d) was 0, the “damage to plant (100=total damage to plant; 0=no damage to plant), CYPES” value (rate 500, evaluated after 15 d) was 10 and the “damage to plant (100=total damage to plant; 0=no damage to plant), DIGSA” value (rate 130, evaluated after 15 d) was 0. The “damage to plant (100=total damage to plant; 0=no damage to plant), DIGSA” value (rate 250, evaluated after 15 d) was 10, the “damage to plant (100=total damage to plant; 0=no damage to plant), DIGSA” value (rate 500, evaluated after 15 d) was 60 and the “damage to plant (100=total damage to plant; 0=no damage to plant), ECHCG” value (rate 130, evaluated after 15 d) was 40. For the same compound, the “damage to plant (100=total damage to plant; 0=no damage to plant), ECHCG” value (rate 250, evaluated after 15 d) was 60, the “damage to plant (100=total damage to plant; 0=no damage to plant), ECHCG” value (rate 500, evaluated after 15 d) was 80 and the “damage to plant (100=total damage to plant; 0=no damage to plant), ELEIN” value (rate 130, evaluated after 15 d) was 0. The “damage to plant (100=total damage to plant; 0=no damage to plant), ELEIN” value (rate 250, evaluated after 15 d) was 0, the “damage to plant (100=total damage to plant; 0=no damage to plant), ELEIN” value (rate 500, evaluated after 15 d) was 0 and the “damage to plant (100=total damage to plant; 0=no damage to plant), EPHHL” value (rate 130, evaluated after 15 d) was 0. The “damage to plant (100=total damage to plant; 0=no damage to plant), EPHHL” value (rate 250, evaluated after 15 d) was 0, the “damage to plant (100=total damage to plant; 0=no damage to plant), EPHHL” value (rate 500, evaluated after 15 d) was 0 and the “damage to plant (100=total damage to plant; 0=no damage to plant), GLXMA” value (rate 130, evaluated after 15 d) was 10. The “damage to plant (100=total damage to plant; 0=no damage to plant), GLXMA” value (rate 250, evaluated after 15 d) was 10, the “damage to plant (100=total damage to plant; 0=no damage to plant), GLXMA” value (rate 500, evaluated after 15 d) was 20 and the “damage to plant (100=total damage to plant; 0=no damage to plant), IPOHE” value (rate 130, evaluated after 15 d) was 0. For the same compound, the “damage to plant (100=total damage to plant; 0=no damage to plant), IPOHE” value (rate 250, evaluated after 15 d) was 0, the “damage to plant (100=total damage to plant; 0=no damage to plant), IPOHE” value (rate 500, evaluated after 15 d) was 0 and the “damage to plant (100=total damage to plant; 0=no damage to plant), ORYSA” value (rate 130, evaluated after 15 d) was 0. The “damage to plant (100=total damage to plant; 0=no damage to plant), ORYSA” value (rate 250, evaluated after 15 d) was 0, the “damage to plant (100=total damage to plant; 0=no damage to plant), ORYSA” value (rate 500, evaluated after 15 d) was 20 and the “damage to plant (100=total damage to plant; 0=no damage to plant), PANMI” value (rate 130, evaluated after 15 d) was 0. For the same compound, the “damage to plant (100=total damage to plant; 0=no damage to plant), PANMI” value (rate 250, evaluated after 15 d) was 0, the “damage to plant (100=total damage to plant; 0=no damage to plant), PANMI” value (rate 500, evaluated after 15 d) was 0 and the “damage to plant (100=total damage to plant; 0=no damage to plant), SETFA” value (rate 130, evaluated after 15 d) was 0. The “damage to plant (100=total damage to plant; 0=no damage to plant), SETFA” value (rate 250, evaluated after 15 d) was 0, the “damage to plant (100=total damage to plant; 0=no damage to plant), SETFA” value (rate 500, evaluated after 15 d) was 60 and the “damage to plant (100=total damage to plant; 0=no damage to plant), SIDSP” value (rate 130, evaluated after 15 d) was 0. For the same compound, the “damage to plant (100=total damage to plant; 0=no damage to plant), SIDSP” value (rate 250, evaluated after 15 d) was 0, the “damage to plant (100=total damage to plant; 0=no damage to plant), SIDSP” value (rate 500, evaluated after 15 d) was 0 and the “damage to plant (100=total damage to plant; 0=no damage to plant), SORVU” value (rate 130, evaluated after 15 d) was 0. For the same compound, the “damage to plant (100=total damage to plant; 0=no damage to plant), SORVU” value (rate 250, evaluated after 15 d) was 0 and the “damage to plant (100=total damage to plant; 0=no damage to plant), SORVU” value (rate 500, evaluated after 15 d) was 0.
